In PubChem BioAssay AID248 (DTP/NCI, 2004):
Where “and” joins values, the source holds several entries; their conditions need not be identical. Identical values can stand only once. Toxic doses and inconclusive results are not listed. Rule as the data show it: active = T/C of 150% or more; inactive = T/C below 125%.

Tested on: L1210 leukemia ip in BDF1 mice, survival T/C
Assay: NCI In Vivo Anticancer Drug Screen. Data for tumor model L1210 Leukemia (intraperitoneal) in B6D2F1 (BDF1) mice
Conditions: endpoint: mean survival time, higher = longer survival
Method in brief: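 Each compound was tested against a transplantable tumor grown in mice. The endpoint was survival, with treated animals benchmarked against vehicle controls as a simple ratio.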

[1] = dose: 50.0 mg/kg/injection, schedule: Q01DX009 (ip), vehicle: saline
[2] = dose: 100.0 mg/kg/injection, schedule: Q01DX009 (ip), vehicle: saline
[3] = dose: 100.0 mg/kg/injection, schedule: Q04DX003 (ip), vehicle: saline
[4] = dose: 200.0 mg/kg/injection, schedule: Q04DX003 (ip), vehicle: saline
[5] = dose: 100.0 mg/kg/injection, schedule: Q01DX001 (ip), vehicle: saline
[6] = dose: 200.0 mg/kg/injection, schedule: Q01DX001 (ip), vehicle: saline
[7] = dose: 400.0 mg/kg/injection, schedule: Q01DX001 (ip), vehicle: saline
[8] = dose: 50.0 mg/kg/injection, schedule: Q01DX001 (ip), vehicle: saline
[9] = dose: 100.0 mg/kg/injection, schedule: Q01DX001 (ip), vehicle: other
[10] = dose: 200.0 mg/kg/injection, schedule: Q01DX001 (ip), vehicle: other
[11] = dose: 100.0 mg/kg/injection, schedule: Q01DX009 (ip), vehicle: saline with Tween-80
[12] = dose: 100.0 mg/kg/injection, schedule: Q04DX003 (ip), vehicle: saline with Tween-80
[13] = dose: 200.0 mg/kg/injection, schedule: Q01DX009 (ip), vehicle: saline with Tween-80
[14] = dose: 200.0 mg/kg/injection, schedule: Q04DX003 (ip), vehicle: saline with Tween-80
[15] = dose: 400.0 mg/kg/injection, schedule: Q04DX003 (ip), vehicle: saline with Tween-80
[16] = dose: 100.0 mg/kg/injection, schedule: Q01DX001 (ip), vehicle: carboxymethylcellulose (CMC)
[17] = dose: 200.0 mg/kg/injection, schedule: Q01DX001 (ip), vehicle: carboxymethylcellulose (CMC)
[18] = dose: 400.0 mg/kg/injection, schedule: Q01DX001 (ip), vehicle: carboxymethylcellulose (CMC)

Measured: T/C

Cc1ccc(S(=O)(=O)Nc2c(N)nc(N)nc2-c2ccccc2)cc1
inactive: dose: 80.0 mg/kg/injection, schedule: Q01DX001 (ip), vehicle: Klucel (hydroxypropylcellulose) (HPC) 96 % of control | dose: 160.0 mg/kg/injection, schedule: Q01DX001 (ip), vehicle: Klucel (hydroxypropylcellulose) (HPC) 94 % of control | dose: 320.0 mg/kg/injection, schedule: Q01DX001 (ip), vehicle: Klucel (hydroxypropylcellulose) (HPC) 103 % of control

CC(=O)Nc1ncnn1C(C)=O
inactive: [1] 97 % of control | [2] 96 % of control | [3] 98 % of control | dose: 200.0 mg/kg/injection, schedule: Q01DX009 (ip), vehicle: saline 97 % of control | [4] 95 % of control

CCOC(=O)C/C(=C/c1ccco1)C(=O)OCC
inactive: [5] 86 % of control | [3] 89 % of control | [6] 92 % of control | [4] 96 % of control | [7] 89 % of control | dose: 400.0 mg/kg/injection, schedule: Q04DX003 (ip), vehicle: saline 89 % of control

Cc1c(Cl)c(N(C)S(=O)(=O)c2ccccc2)c(C)c(Cl)c1N(C)S(=O)(=O)c1ccccc1
inactive: dose: 100.0 mg/kg/injection, schedule: Q04DX003 (ip), vehicle: Klucel (hydroxypropylcellulose) (HPC) 103 % of control | dose: 200.0 mg/kg/injection, schedule: Q04DX003 (ip), vehicle: Klucel (hydroxypropylcellulose) (HPC) 96 % of control | dose: 400.0 mg/kg/injection, schedule: Q04DX003 (ip), vehicle: Klucel (hydroxypropylcellulose) (HPC) 95 % of control

O=C(/C=C/c1ccccc1)N1CCOCC1
inactive: [1] 95 % of control | [5] 97 % of control | [2] 97 % of control | [6] 95 % of control

CN(C)C(=O)NCc1ccco1
inactive: dose: 12.5 mg/kg/injection, schedule: Q04DX003 (ip), vehicle: saline 97 % of control | dose: 25.0 mg/kg/injection, schedule: Q04DX003 (ip), vehicle: saline 95 % of control | dose: 50.0 mg/kg/injection, schedule: Q04DX003 (ip), vehicle: saline 101 % of control

O=C(CCN1CCCCC1)c1ccc([N+](=O)[O-])cc1
inactive: [6] 103 % of control

Cc1cc(Cl)cc(CN(C)C)c1O.[Cu+2]
inactive: [8] 97 % of control | [5] 97 % of control | [6] 113 % of control

CC(=O)N(c1ccccc1)C(C(=O)c1ccccc1)c1ccccc1 (stereo not given)
inactive: [8] 98 % of control | [5] 102 % of control | [6] 108 % of control | [7] 98 % of control

O=C(O)c1cccc(Cl)c1F
inactive: dose: 50.0 mg/kg/injection, schedule: Q04DX002 (ip), vehicle: saline with Tween-80 97 % of control | dose: 100.0 mg/kg/injection, schedule: Q04DX002 (ip), vehicle: saline with Tween-80 97 % of control and 107 % of control | dose: 200.0 mg/kg/injection, schedule: Q04DX002 (ip), vehicle: saline with Tween-80 97 % of control

C=COC(=O)c1ccccc1 (tested in a mixture with another compound)
inactive: [9] 97 % of control | [5] 110 % of control [middle of 4 runs] | [10] 97 % of control | [6] 97 % of control and 105 % of control and 108 % of control | dose: 400.0 mg/kg/injection, schedule: Q01DX001 (ip), vehicle: other 86 % of control | [7] 101 % of control and 105 % of control and 108 % of control

Cn1c2ccccc2c2cc3cnccc3cc21
inactive: dose: 37.5 mg/kg/injection, schedule: Q04DX003 (ip), vehicle: Klucel (hydroxypropylcellulose) (HPC) 102 % of control | dose: 75.0 mg/kg/injection, schedule: Q04DX003 (ip), vehicle: Klucel (hydroxypropylcellulose) (HPC) 105 % of control | dose: 150.0 mg/kg/injection, schedule: Q04DX003 (ip), vehicle: Klucel (hydroxypropylcellulose) (HPC) 106 % of control | dose: 300.0 mg/kg/injection, schedule: Q04DX003 (ip), vehicle: Klucel (hydroxypropylcellulose) (HPC) 111 % of control

O=c1[nH]cc(B(O)O)c(=O)[nH]1
inactive: [5] 94 % of control | [6] 98 % of control | [7] 98 % of control

Cn1c(CO)cc2ccccc21
inactive: [11] 98 % of control | [12] 96 % of control | [13] 98 % of control | [14] 96 % of control | dose: 400.0 mg/kg/injection, schedule: Q01DX009 (ip), vehicle: saline with Tween-80 88 % of control | [15] 98 % of control

COc1ccc(C2NC(=O)NC2=O)cc1 (stereo not given)
inactive: [8] 105 % of control | [5] 105 % of control | [12] 108 % of control | [6] 102 % of control | [14] 103 % of control | [7] 111 % of control | [15] 92 % of control

CCOC(=O)C1C(O)=C(C(=O)Nc2ccccc2)C(=O)C(C(=O)O)C1C1CC=CCC1 (stereo not given)
inactive: [9] 97 % of control | [12] 94 % of control | [10] 100 % of control | [14] 103 % of control | [15] 100 % of control

O=C(c1ccccc1)C(Cc1ccccc1)C(Cc1ccccc1)c1ccccc1 (stereo not given)
inactive: dose: 100.0 mg/kg/injection, schedule: Q04DX003 (ip), vehicle: acetone 93 % of control | dose: 200.0 mg/kg/injection, schedule: Q04DX003 (ip), vehicle: acetone 98 % of control | dose: 400.0 mg/kg/injection, schedule: Q04DX003 (ip), vehicle: acetone 92 % of control

O=[N+]([O-])C=C([SH2+])[SH2+].O=[N+]([O-])C=C([SH2+])[SH2+].[Ni+2].c1ccc(C[P+](c2ccccc2)(c2ccccc2)c2ccccc2)cc1
inactive: dose: 75.0 mg/kg/injection, schedule: Q04DX003 (ip), vehicle: saline 101 % of control | dose: 150.0 mg/kg/injection, schedule: Q04DX003 (ip), vehicle: saline 101 % of control

CSc1cc2c(c(SC)c1[N+](=O)[O-])C(=O)c1ccccc1-2
inactive: [16] 102 % of control | [17] 98 % of control | [18] 102 % of control

CC(C)(C)NSc1nc2ccccc2s1
inactive: dose: 50.0 mg/kg/injection, schedule: Q01DX009 (ip), vehicle: saline with Tween-80 97 % of control | [11] 94 % of control | [13] 98 % of control

CC(=O)OC/C=C(\C)CCC=O
inactive: dose: 100.0 mg/kg/injection, schedule: Q04DX003 (ip), vehicle: water 98 % of control | dose: 200.0 mg/kg/injection, schedule: Q04DX003 (ip), vehicle: water 102 % of control | dose: 400.0 mg/kg/injection, schedule: Q04DX003 (ip), vehicle: water 100 % of control

Nc1nc(N)c(N=Nc2ccc(S(=O)(=O)Nc3ccccn3)cc2)cc1N=Nc1ccccc1
inactive: [16] 94 % of control | [17] 102 % of control | [18] 103 % of control

OC1C2CCN(CC2)C1C(c1ccccc1)c1ccc(F)cc1 (stereo not given)
inactive: dose: 100.0 mg/kg/injection, schedule: Q04DX002 (ip), vehicle: Klucel (hydroxypropylcellulose) (HPC) 91 % of control | dose: 200.0 mg/kg/injection, schedule: Q04DX002 (ip), vehicle: Klucel (hydroxypropylcellulose) (HPC) 87 % of control
